According to patent US8962684B2, “Antioxidant composition” (Shiseido Company, Ltd., priority 2009, dated 2015):

Key:
[1] = tested on: human neonatal skin fibroblast cells (Cryo NHDF-Neo); experiment: Antioxidant effect on oxidative damages induced by hydrogen peroxide (AlamarBlue viable cell ratio); type: cell-based; settings: for antioxidant effect on hydrogen peroxide: conclusion in words
Experimental: (§1) For the evaluation of an antioxidant effect on hydrogen peroxide, human neonatal skin fibroblast cells (trade name: Cryo NHDF-Neo, manufactured by Sankyo Junyaku Co., Ltd.) were inoculated to a 24-well plate to have 1×10^5 cells per well. The cells were then cultured for four hours in a medium for cell culture (trade name: D-MEM (1 g/L glucose), manufactured by Wako Pure Chemical Industries) supplemented with 10% bovine fetal serum (herein below, referred to as a “standard medium”) in a 5% CO2 and saturated water vapor atmosphere at 37° C. (degrees Celsius). For the evaluation of an antioxidant effect on AAPH, antibiotics (penicillin, streptomycin, and fungizone) were supplemented to the standard medium and the cells were cultured for one day.
(§2) Subsequently, the culture medium was switched to a medium for cell culture (trade name: D-MEM (1 g/L glucose), manufactured by Wako Pure Chemicals Industries) supplemented with 0.5% bovine fetal serum (herein below, referred to as “low-serum medium”) to which 0.01% or 0.05% carnosine, or 0.1 μM (micro-molar) or 10 μM (micro-molar) D- or L-aspartic acid had been added, and the cells were cultured for two days under atmosphere of 5% CO2 and saturated moisture at 37° C. (degrees Celsius). For the experiment for the evaluation of oxidative damages on AAPH, the culture medium was switched to the medium for cell culture to which 5 ppm or 100 ppm carnosine, or 10 μM (micro-molar) D- or L-aspartic acid had been further added, and the cells were cultured for two days. The low-serum medium described above to which neither carnosine nor aspartic acid had been added was employed as a negative control.
(§3) After culturing for two days, 1 mM or 4 mM hydrogen peroxide, or 50 mM or 100 mM AAPH was added to the medium for evaluating an antioxidant effect, and the antioxidant effect was evaluated for carnosine or aspartic acid. The low-serum medium described above to which neither hydrogen peroxide nor AAPH had been added was employed as a control for evaluation of toxicity of an antioxidant when no oxidant was added.
(§4) Two hours after the addition of hydrogen peroxide or AAPH, AlarmarBlue (trade name: Biosource, manufactured by Biosource International Inc.) was added to have final concentration of 10%. Two to three hours later, according to the methods by Ahmed S. A. et al. (J. Immunol. Method., 170, 211-224 (1994)) and the instructions provided by the manufacturer, the fluorescent intensity of the supernatant was measured with an excitation wavelength of 544 nm, and an emission wavelength of 590 nm.

[2] = tested on: human neonatal skin fibroblast cells (Cryo NHDF-Neo); experiment: Antioxidant effect on oxidative damages induced by AAPH (AlamarBlue viable cell ratio); type: cell-based; settings: for antioxidant effect on AAPH: conclusion in words
Experimental: as §1, §2, §3, §4

[3] = 1 mM hydrogen peroxide, test substance 0.1 μM
[4] = 1 mM hydrogen peroxide, test substance 10 μM
[5] = 4 mM hydrogen peroxide, test substance 0.1 μM
[6] = 4 mM hydrogen peroxide, test substance 10 μM
[7] = without addition of an oxidant (toxicity control), test substance 0.1 μM
[8] = without addition of an oxidant (toxicity control), test substance 10 μM
[9] = 100 mM AAPH, test substance 10 μM
[10] = without addition of the oxidant (toxicity control), test substance 10 μM

| Structure (SMILES) | ratio of viable cells [1, 3] [%] | ratio of viable cells [1, 4] [%] | ratio of viable cells [1, 5] [%] | ratio of viable cells [1, 6] [%] | antioxidant effect on hydrogen peroxide [1] | ratio of viable cells [1, 7] [%] | ratio of viable cells [1, 8] [%] | ratio of viable cells [2, 9] [%] | antioxidant effect on AAPH [2] | ratio of viable cells [2, 10] [%] | ratio of viable cells ([1]; 1 mM hydrogen peroxide, test substance 0.01%) [%] | ratio of viable cells ([1]; 1 mM hydrogen peroxide, test substance 0.05%) [%] | ratio of viable cells ([1]; 4 mM hydrogen peroxide, test substance 0.01%) [%] | ratio of viable cells ([1]; 4 mM hydrogen peroxide, test substance 0.05%) [%] | ratio of viable cells ([1]; without addition of an oxidant (toxicity control), test substance 0.01%) [%] | ratio of viable cells ([1]; without addition of an oxidant (toxicity control), test substance 0.05%) [%] | ratio of viable cells ([2]; 100 mM AAPH, test substance 5 ppm) [%] | ratio of viable cells ([2]; 100 mM AAPH, test substance 100 ppm) [%] | ratio of viable cells ([2]; without addition of an oxidant (toxicity control), test substance 5 ppm) [%] | ratio of viable cells ([2]; without addition of an oxidant (toxicity control), test substance 100 ppm) [%] |
| --- | --- | --- | --- | --- | --- | --- | --- | --- | --- | --- | --- | --- | --- | --- | --- | --- | --- | --- | --- | --- |
| N[C@H](CC(=O)O)C(=O)O [D-aspartic acid] | 62 | 63 | 29 | 34 | concentration-dependent antioxidant effect | 86 | 97 | 96 | more potent antioxidant effect on AAPH compared to L-aspartic acid | 102 | – | – | – | – | – | – | – | – | – | – |
| N[C@@H](CC(=O)O)C(=O)O [L-aspartic acid] | 62 | 62 | 33 | 32 | not observed | 88 | 97 | 69 | antioxidant effect on AAPH only | 80 | – | – | – | – | – | – | – | – | – | – |
| NCCC(=O)N[C@@H](Cc1cnc[nH]1)C(=O)O [carnosine, reference compound] | – | – | – | – | confirmed | – | – | – | confirmed | – | 51 | 53 | 21 | 45 | 100 | 97 | 60 | 85 | 93 | 103 |
